The values that follow come from patent US20260007760A1, “CAMPTOTHECIN DERIVATIVES THAT BIND TO DDX5 PROTEIN AND PRODRUGS THEREOF” (priority 2022, published 2026).

The subject of data set [1] is Survivin, cIAP2, Mcl-1, XIAP. The data set is described as follows: Western blot, expression inhibition of anti-apoptotic proteins in FaDu cell line. Format: cell-based. The note with it: Western blot, 0, 10, 100 nM, 24 hours. In general terms: In western blotting, separated proteins are transferred to a membrane and probed.
The nature of data set [2]: Lactone to carboxylate form conversion in pH 7.4 (RP-HPLC). The note with it: for Conversion from lactone form (active) to carboxylate form (inactive) compared with reference compounds: pH 7.4, references exatecan, DXd, SN-38, FL118. Format: physicochemical.
The conditions of data set [3]: over 21 days; bioconjugated to anti-HER2 antibody, DAR 8; cited from earlier work.
The next data set concerns cancer cells. The note with it: cited from earlier work.
The conditions of data set [4]: days 1 and 8 of a 21-day cycle, 25 patients; cited from earlier work.
The conditions of data set [5]: human, in vivo; cited from earlier work.
Another data set relates to FaDu cell line. The data set is described as follows: Cell viability assay (CellTiter-Glo), FaDu cell line. Format: cell-based. Particulars: FaDu (does not express ABCG2), 3-day incubation. The method, then: After 24 hours, the cells were treated with 100 μl of drugs at 9 concentrations (serial dilutions of 1/5 each from 1,000 nM). […] Also, a control group (drug concentration 0) that was not treated with drugs was prepared. Incubation at constant temperature (37° C., 5% CO2) was performed for 3 or 6 days. 100 ul of CellTiter-Glo reagent (using CellTiter-Glo® Luminescent Cell Viability Assay kit (Promega, G7571)) was added to each well and pipetted. After incubating at constant temperature (RT) for 10 minutes, luminescence was measured.
Cell viability assays were performed on MDA-MB-453 (HER2++) cell lines and FaDu (HER2+) cell lines using the same method as Example 2-2.

The next data set addresses DDX5 (Homo sapiens, UniProt P17844). The data set is described as follows: Western blot, DDX5 degradation in two cell lines (FaDu, A549). The note with it: FaDu and A549, 0, 10, 100 nM.
Data set [6] deals with MDA-MB-453 (HER2++) cell line. The data set is described as follows: Cell viability assay (CellTiter-Glo), MDA-MB-453 cell line. Particulars: MDA-MB-453 and FaDu cell lines, 3 days. A general note: ATP-based viability assays read luminescence as a measure of living cells.
For data set [7], the system named is FaDu (Trop2+++) cell lines and Calu-6 (Trop2−−) cell lines. The data set is described as follows: In vitro cell cytotoxicity test of Sacituzumab-25-6 (6 days). Particulars: free payload.
For data set [8] the following is noted: mouse, in vivo, ip.

Chain of DDX5 (P17844 whole entry): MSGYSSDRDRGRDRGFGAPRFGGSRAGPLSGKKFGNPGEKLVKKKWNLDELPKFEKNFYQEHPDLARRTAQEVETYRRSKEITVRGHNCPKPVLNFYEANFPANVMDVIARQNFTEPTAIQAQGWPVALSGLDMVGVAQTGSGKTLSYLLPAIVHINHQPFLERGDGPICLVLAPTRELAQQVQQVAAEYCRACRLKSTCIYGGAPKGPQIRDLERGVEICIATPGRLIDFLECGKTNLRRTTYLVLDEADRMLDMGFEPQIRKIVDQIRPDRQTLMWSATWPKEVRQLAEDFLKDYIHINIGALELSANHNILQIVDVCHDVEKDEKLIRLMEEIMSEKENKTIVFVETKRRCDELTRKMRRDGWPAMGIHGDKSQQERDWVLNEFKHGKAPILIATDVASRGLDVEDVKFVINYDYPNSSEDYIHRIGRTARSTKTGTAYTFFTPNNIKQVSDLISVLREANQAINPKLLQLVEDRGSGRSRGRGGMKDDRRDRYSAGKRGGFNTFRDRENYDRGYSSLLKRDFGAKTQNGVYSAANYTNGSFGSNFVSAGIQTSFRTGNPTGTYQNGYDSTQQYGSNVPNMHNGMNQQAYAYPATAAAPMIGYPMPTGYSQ

Turning to `CC[C@@]1(O)C(=O)OCc2c1cc1n(c2=O)Cc2c-1nc1cc(F)c(C)c3c1c2[C@@H](N)CC3` [Exatecan], the “Expression of anti-apoptotic proteins (Survivin, cIAP2, Mcl-1, XIAP)” value (from here on “Expression of anti-apoptotic proteins”) in [1] is given as “strongly inhibits the expression of anti-apoptotic proteins”.
Consider `CC[C@@]1(O)C(=O)OCc2c1cc1n(c2=O)Cc2c-1nc1cc(F)c(C)c3c1c2[C@@H](NC(=O)CO)CC3` [Dxd], for which, in [2] (pH 7.4, 37° C.), the “Degree of formation of the carboxylate form” value was “about 76.5%” and the “Rate of conversion from the lactone form to the carboxylate form” value (“Rate of conversion from the lactone form” below) was found to be 0.6 % per minute. Moreover, the Released in plasma in [3] is recorded as 2.1%. For the same compound, in the data set on cancer cells, the “Activity in cancer cells relative to SN-38” value is on record as 10 times.
Take sacituzumab govitecan: the Dose-limiting toxicity result in [4] was “neutropenia”. In [5], the “Diarrhea, all-grade” value is given as 65%; the Febrile neutropenia is 7%; the “Neutropenia, Grade≥3” value is listed as 47%; the “Neutropenia, all-grade” value was 61%. The Neutropenic colitis in [5] is given as 0.5%.
For the compound `CCc1c2c(nc3ccc(O)cc13)-c1cc3c(c(=O)n1C2)COC(=O)[C@]3(O)CC` [SN-38], the IC50 values result with cancer cells (several cell lines) is on record as “nanomolar range”.
Take `CC[C@@]1(O)C(=O)OCc2c1cc1n(c2=O)Cc2c-1nc1cc3c(c4c1c2[C@@H](N)CC4)OCO3` [PBX-7011, (1S,10S)-1-amino-10-ethyl-10-hydroxy-1,2,3,10,13,16-hexahydro-11H,14H-benzo[de][1,3]dioxolo[4,5-g]pyrano[3′,4′:6,7]indolizino[1,2-b]quinoline-11,14-dione]: in [1], the “Expression of anti-apoptotic proteins” value is “decrease in the expression of Survivin, cIAP2, Mcl-1, and XIAP as the concentration increased”.
With `CC[C@@]1(O)C(=O)OCc2c1cc1n(c2=O)Cc2c-1nc1cc3c(c4c1c2[C@@H](NC(=O)CO)CC4)OCO3` [PBX-7014], the “Expression of anti-apoptotic proteins” value in data set [1] is “decrease in the expression of Survivin, cIAP2, Mcl-1, and XIAP as the concentration increased”. Further, in [2] (pH 7.4, 37° C.), the “Rate of conversion from the lactone form” value turned out to be 0.8 % per minute. In addition, the “Conversion from lactone form (active) to carboxylate form (inactive) compared with reference compounds” value (“Conversion … compared with reference compounds” below) in [2] is “more rapidly and at a higher rate than other reference compounds”.
With `CC[C@@]1(O)C(=O)OCc2c1cc1n(c2=O)Cc2c-1nc1cc3c(c4c1c2[C@@H](NC(=O)[C@@H](O)C1CC1)CC4)OCO3` [PBX-7024], the “Conversion … compared with reference compounds” value in data set [2] was “more rapidly and at a higher rate than other reference compounds”. Further, the “Cell killing efficacy (IC50)” value in the data set on FaDu cell line is given as “strong cell killing efficacy”.
Take `CC[C@@]1(O)C(=O)OCc2c1cc1n(c2=O)Cc2c-1nc1cc3c(c4c1c2[C@@H](NC(=O)[C@@H](C)O)CC4)OCO3` [PBX-7016]: the DDX5 degradation result on DDX5 is given as “inhibited DDX5 in a concentration-dependent manner”. Besides, in data set [1], the “Expression of anti-apoptotic proteins” value was “decrease in the expression of Survivin, cIAP2, Mcl-1, and XIAP as the concentration increased”. Also, the “Rate of conversion from the lactone form” value in data set [2] (pH 7.4, 37° C.) worked out at 0.8 % per minute. For the same compound, in data set [2], the “Conversion … compared with reference compounds” value is “more rapidly and at a higher rate than other reference compounds”. The “IC50 level compared with Dxd” value in data set [6] was “equivalent to or higher than Dxd”. For the same compound, the “Cell membrane penetration of non-target cells / cell death” value in [7] is on record as “can penetrate the cell membrane of non-target cells”. The “Clearance from the blood” value in [8] was “cleared from the blood very quickly”.
With `CC[C@@]1(O)C(=O)OCc2c1cc1n(c2=O)Cc2cc3cc4c(cc3nc2-1)OCO4` [FL118], the DDX5 degradation result on DDX5 is “superior to other substances in DDX5 degradation”. For the same compound, the “Expression of anti-apoptotic proteins” value in [1] is “strongly inhibiting the expression of anti-apoptotic proteins”. Besides, in the data set on cancer cells (various cancer cell lines), the “Cytotoxicity relative to SN-38 (times more potent)” value is given as 5-10 times.
